Data as given in ChEMBL document CHEMBL6078643, “Palladium-Mediated Bioorthogonal System for Prodrug Activation of N-Benzylbenzamide-Containing Tubulin Polymerization Inhibitors for the Treatment of Solid Tumors” (J Med Chem, 2024).
One block for each compound: values may come before it. Active and inactive are the calls of the source. No cut-off for these calls is given here.

Experiments:
HepG2 [1] = experiment: Antiproliferative activity against human HepG2 cells assessed as reduction in cell viability incubated for 72 hrs by CCK-8 assay; format: functional, cell-based; settings: HepG2, 72 h
H22 [2] = experiment: Antiproliferative activity against mouse H22 cells assessed as reduction in cell viability incubated for 72 hrs by CCK-8 assay; format: functional, cell-based; settings: H22, 72 h
K562 [3] = experiment: Antiproliferative activity against human K562 cells assessed as reduction in cell viability incubated for 72 hrs by CCK-8 assay; format: functional, cell-based; settings: K562, 72 h
[4] = Antiproliferative activity against human THLE-2 cells assessed as reduction in cell viability incubated for 72 hrs by CCK-8 assay; format: toxicity, cell-based
HepG2 [5] = experiment: Select factor, ratio of test compound IC50 to 4-(((4-((4-methoxyphenyl)(methyl)amino)quinazolin-2-yl)amino)methyl)phenol IC50 for antiproliferative activity against human HepG2 cells assessed as reduction in cell viability incubated for 72 hrs by CCK-8 assay; format: functional
H22 [6] = experiment: Select factor, ratio of test compound IC50 to 4-(((4-((4-methoxyphenyl)(methyl)amino)quinazolin-2-yl)amino)methyl)phenol IC50 for antiproliferative activity against mouse H22 cells assessed as reduction in cell viability incubated for 72 hrs by CCK-8 assay; format: functional
K562 [7] = experiment: Select factor, ratio of test compound IC50 to 4-(((4-((4-methoxyphenyl)(methyl)amino)quinazolin-2-yl)amino)methyl)phenol IC50 for antiproliferative activity against human K562 cells assessed as reduction in cell viability incubated for 72 hrs by CCK-8 assay; format: functional
[8] = Select factor, ratio of test compound IC50 to 4-(((4-((4-methoxyphenyl)(methyl)amino)quinazolin-2-yl)amino)methyl)phenol IC50 for antiproliferative activity against human THLE-2 cells assessed as reduction in cell viability incubated for 72 hrs by CCK-8 assay; format: toxicity, cell-based; settings: read-out: Ratio IC50
[9] = Prodrug release in PBS buffer assessed as half release time of 4-(((4-((4-methoxyphenyl)(methyl)amino)quinazolin-2-yl)amino)methyl)phenol in presence of palladium resins at 75 uM by HPLC analysis; format: ADME
HepG2 [10] = experiment: Select factor, ratio of test compound IC50 to 5-fluoro-N-(3-hydroxy-4-methoxybenzyl)-2-morpholinobenzamide IC50 for antiproliferative activity against human HepG2 cells assessed as reduction in cell viability incubated for 72 hrs by CCK-8 assay; format: functional
H22 [11] = experiment: Select factor, ratio of test compound IC50 to 5-fluoro-N-(3-hydroxy-4-methoxybenzyl)-2-morpholinobenzamide IC50 for antiproliferative activity against mouse H22 cells assessed as reduction in cell viability incubated for 72 hrs by CCK-8 assay; format: functional
K562 [12] = experiment: Select factor, ratio of test compound IC50 to 5-fluoro-N-(3-hydroxy-4-methoxybenzyl)-2-morpholinobenzamide IC50 for antiproliferative activity against human K562 cells assessed as reduction in cell viability incubated for 72 hrs by CCK-8 assay; format: functional
[13] = Select factor, ratio of test compound IC50 to 5-fluoro-N-(3-hydroxy-4-methoxybenzyl)-2-morpholinobenzamide IC50 for antiproliferative activity against human THLE-2 cells assessed as reduction in cell viability incubated for 72 hrs by CCK-8 assay; format: toxicity, cell-based; settings: read-out: Ratio IC50
[14] = Prodrug release in PBS buffer assessed as half release time of 5-fluoro-N-(3-hydroxy-4-methoxybenzyl)-2-morpholinobenzamide in presence of palladium resins at 75 uM by HPLC analysis; format: ADME
K562 [15] = experiment: Induction of cell cycle arrest in human K562 cells assessed as accumulation of cells at G1 phase at 20 nM incubated for 72 hrs by PI staining based flow cytometric analysis ( Rvb = 77.46 %); format: functional
K562 [16] = experiment: Induction of cell cycle arrest in human K562 cells assessed as accumulation of cells at S phase at 20 nM incubated for 72 hrs by PI staining based flow cytometric analysis ( Rvb = 14.04 %); format: functional
K562 [17] = experiment: Induction of cell cycle arrest in human K562 cells assessed as accumulation of cells at G2 phase at 20 nM incubated for 72 hrs by PI staining based flow cytometric analysis ( Rvb = 8.5 %); format: functional
K562 [18] = experiment: Induction of apoptosis in human K562 cells assessed as viable cells at 20 nM incubated for 72 hrs by Annexin V-APC staining based flow cytometric analysis (reference value: 94.21%); format: functional; settings: read-out: Activity
K562 [19] = experiment: Induction of apoptosis in human K562 cells assessed as early apoptotic cells at 20 nM incubated for 72 hrs by Annexin V-APC staining based flow cytometric analysis (reference value: 2.78%); format: functional
K562 [20] = experiment: Induction of apoptosis in human K562 cells assessed as late apoptotic cells at 20 nM incubated for 72 hrs by Annexin V-APC staining based flow cytometric analysis (reference value: 1.36%); format: functional
K562 [21] = experiment: Induction of apoptosis in human K562 cells assessed as necrotic cells at 20 nM incubated for 72 hrs by Annexin V-APC staining based flow cytometric analysis (reference value: 1.65%); format: functional
Tubulin (Homo sapiens) [22] = target: T1, Tubulin (Homo sapiens) (UniProt P68371+Q9H4B7+P0DPH7+P68366+Q13509+Q71U36+P04350+Q3ZCM7+P07437+P68363+Q9BQE3+Q6PEY2+Q13885+Q9BVA1+Q9BUF5); experiment: Disruption of microtubule organization in human K562 cells at 20 nM incubated for 72 hrs by DAPI staining based confocal microscopic analysis; format: cell-based
K562 [23] = experiment: Antiproliferative activity against human K562 cells at 100 nM incubated for 72 hrs in presence of palladium resins by CCK-8 assay; format: functional, cell-based
HepG2 [24] = experiment: Antiproliferative activity against human HepG2 cells at 100 nM incubated for 72 hrs in presence of palladium resins by CCK-8 assay; format: functional, cell-based
Tubulin (Homo sapiens) [25] = target: T1, Tubulin (Homo sapiens); experiment: Inhibition of tubulin polymerization in human HepG2 cells assessed as decrease in alpha tubulin expression at 19 nM incubated for 24 hrs by Western blotting analysis; format: cell-based
Tubulin (Homo sapiens) [26] = target: T1, Tubulin (Homo sapiens); experiment: Inhibition of tubulin polymerization in human K562 cells assessed as decrease in alpha tubulin expression at 16 nM incubated for 24 hrs by Western blotting analysis; format: cell-based
Tubulin (Homo sapiens) [27] = target: T1, Tubulin (Homo sapiens); experiment: Inhibition of tubulin polymerization in human HepG2 cells assessed as decrease in beta tubulin expression at 19 nM incubated for 24 hrs by Western blotting analysis; format: cell-based
Tubulin (Homo sapiens) [28] = target: T1, Tubulin (Homo sapiens); experiment: Inhibition of tubulin polymerization in human K562 cells assessed as decrease in beta tubulin expression at 16 nM incubated for 24 hrs by Western blotting analysis; format: cell-based
Tubulin (Homo sapiens) [29] = target: T1, Tubulin (Homo sapiens); experiment: Inhibition of tubulin polymerization in human HepG2 cells assessed as decrease in polymerized alpha tubulin level at 19 nM incubated for 24 hrs by Western blotting analysis; format: cell-based
Tubulin (Homo sapiens) [30] = target: T1, Tubulin (Homo sapiens); experiment: Inhibition of tubulin polymerization in human K562 cells assessed as decrease in polymerized alpha tubulin level at 16 nM incubated for 24 hrs by Western blotting analysis; format: cell-based
[31] = target: Bcr/Abl fusion protein (Homo sapiens) (UniProt P00519+P11274); experiment: Inhibition of Bcr-Abl in human K562 cells at 16 nM incubated for 24 hrs by Western blotting analysis; format: cell-based
HepG2 [32] = experiment: Antitumor activity against human HepG2 cells xenografted in Balb/c mouse assessed as tumor growth inhibition at 20 mg/kg, iv administered daily for 14 days relative to control; format: functional; settings: HepG2, 336 h, time 14 day, read-out: TGI
HepG2 [33] = experiment: Antitumor activity against human HepG2 cells xenografted in Balb/c mouse assessed as cell necrosis at 20 mg/kg, iv administered daily for 14 days by H and E staining based analysis; format: functional, organism-based; settings: time 14.0 day
HepG2 [34] = experiment: Antitumor activity against human HepG2 cells xenografted in Balb/c mouse assessed as cell necrosis at 20 mg/kg, iv administered daily for 14 days by TUNEL staining based analysis; format: functional, organism-based; settings: time 14.0 day
Tubulin (Homo sapiens) [35] = target: T1, Tubulin (Homo sapiens); experiment: In vivo inhibition of tubulin polymerization in human HepG2 cells xenografted in Balb/c mouse assessed as decrease in alpha tubulin expression at 20 mg/kg, iv administered daily for 14 days incubated for 24 hrs by Western blot analysis; format: functional, organism-based; settings: time 14.0 day
Tubulin (Homo sapiens) [36] = target: T1, Tubulin (Homo sapiens); experiment: In vivo inhibition of tubulin polymerization in human HepG2 cells xenografted in Balb/c mouse assessed as decrease in beta tubulin expression at 20 mg/kg, iv administered daily for 14 days incubated for 24 hrs by Western blot analysis; format: functional, organism-based; settings: time 14.0 day

Sequence of Bcr/Abl fusion protein (Homo sapiens) (P00519 whole entry, looked up, the tested form may be a part): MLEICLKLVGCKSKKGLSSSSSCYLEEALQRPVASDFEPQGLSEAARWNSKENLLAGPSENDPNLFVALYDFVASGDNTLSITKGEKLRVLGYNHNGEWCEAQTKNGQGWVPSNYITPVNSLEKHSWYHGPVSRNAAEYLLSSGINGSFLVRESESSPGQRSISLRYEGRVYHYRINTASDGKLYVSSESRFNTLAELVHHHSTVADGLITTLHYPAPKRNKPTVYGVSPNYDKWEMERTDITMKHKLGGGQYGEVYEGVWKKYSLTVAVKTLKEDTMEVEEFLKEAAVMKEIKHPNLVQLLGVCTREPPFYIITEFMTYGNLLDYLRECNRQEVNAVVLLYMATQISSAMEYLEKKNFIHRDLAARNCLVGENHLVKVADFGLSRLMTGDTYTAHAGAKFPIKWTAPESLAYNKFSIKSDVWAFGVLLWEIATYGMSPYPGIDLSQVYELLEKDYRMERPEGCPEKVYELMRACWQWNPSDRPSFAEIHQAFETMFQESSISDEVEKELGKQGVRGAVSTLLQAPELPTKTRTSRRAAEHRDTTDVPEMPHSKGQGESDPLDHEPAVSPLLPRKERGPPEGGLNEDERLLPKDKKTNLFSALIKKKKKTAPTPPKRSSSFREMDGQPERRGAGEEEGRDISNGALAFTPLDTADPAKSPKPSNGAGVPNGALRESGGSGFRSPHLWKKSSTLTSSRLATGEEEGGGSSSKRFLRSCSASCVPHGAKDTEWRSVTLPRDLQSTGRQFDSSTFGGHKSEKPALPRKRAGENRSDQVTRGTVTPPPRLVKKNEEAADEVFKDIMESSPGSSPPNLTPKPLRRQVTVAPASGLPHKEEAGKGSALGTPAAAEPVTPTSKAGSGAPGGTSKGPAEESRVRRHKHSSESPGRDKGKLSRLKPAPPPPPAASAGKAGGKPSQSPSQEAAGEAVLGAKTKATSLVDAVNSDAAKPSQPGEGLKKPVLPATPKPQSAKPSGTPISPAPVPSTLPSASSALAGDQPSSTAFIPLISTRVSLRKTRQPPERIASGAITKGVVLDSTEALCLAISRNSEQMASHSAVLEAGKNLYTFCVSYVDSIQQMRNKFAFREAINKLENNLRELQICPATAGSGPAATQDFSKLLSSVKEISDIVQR
Sequence of Bcr/Abl fusion protein (Homo sapiens) (P11274 whole entry, looked up, the tested form may be a part): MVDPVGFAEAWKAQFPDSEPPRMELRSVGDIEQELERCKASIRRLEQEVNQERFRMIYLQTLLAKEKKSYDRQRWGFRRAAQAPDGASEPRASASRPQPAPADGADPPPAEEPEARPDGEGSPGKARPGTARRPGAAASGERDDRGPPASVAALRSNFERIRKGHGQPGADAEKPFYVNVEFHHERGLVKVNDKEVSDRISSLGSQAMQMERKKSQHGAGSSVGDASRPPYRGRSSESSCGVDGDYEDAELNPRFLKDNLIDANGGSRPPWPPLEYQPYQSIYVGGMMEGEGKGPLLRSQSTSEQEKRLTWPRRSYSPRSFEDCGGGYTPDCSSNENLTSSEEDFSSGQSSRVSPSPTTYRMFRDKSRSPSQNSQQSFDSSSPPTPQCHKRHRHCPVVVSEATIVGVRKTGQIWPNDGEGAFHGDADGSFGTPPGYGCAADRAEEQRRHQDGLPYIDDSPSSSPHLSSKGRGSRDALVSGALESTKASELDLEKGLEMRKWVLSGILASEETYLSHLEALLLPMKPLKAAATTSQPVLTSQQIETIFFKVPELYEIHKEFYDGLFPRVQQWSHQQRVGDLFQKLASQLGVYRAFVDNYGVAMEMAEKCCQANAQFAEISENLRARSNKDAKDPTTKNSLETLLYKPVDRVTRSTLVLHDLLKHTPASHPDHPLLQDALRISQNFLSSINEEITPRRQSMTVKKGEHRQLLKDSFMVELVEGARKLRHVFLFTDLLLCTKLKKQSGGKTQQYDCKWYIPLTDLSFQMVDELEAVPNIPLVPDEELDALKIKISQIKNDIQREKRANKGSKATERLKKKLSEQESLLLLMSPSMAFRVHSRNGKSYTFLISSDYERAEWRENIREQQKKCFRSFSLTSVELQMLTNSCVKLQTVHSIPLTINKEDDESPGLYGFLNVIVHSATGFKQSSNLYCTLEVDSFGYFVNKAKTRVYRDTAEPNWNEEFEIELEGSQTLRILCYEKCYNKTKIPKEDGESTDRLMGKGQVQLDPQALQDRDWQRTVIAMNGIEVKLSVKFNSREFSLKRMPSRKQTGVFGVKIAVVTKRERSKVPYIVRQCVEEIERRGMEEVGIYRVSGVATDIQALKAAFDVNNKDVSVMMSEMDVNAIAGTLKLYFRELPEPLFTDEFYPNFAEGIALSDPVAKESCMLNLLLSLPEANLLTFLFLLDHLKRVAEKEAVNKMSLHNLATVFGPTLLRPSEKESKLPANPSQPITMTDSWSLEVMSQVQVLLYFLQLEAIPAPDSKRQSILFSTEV

Structure (SMILES): C#CC(C)(C)Oc1ccc(CNc2nc(N(C)c3ccc(OC)cc3)c3ccccc3n2)cc1
IC50 (HepG2 [1]): 491 nM
IC50 (H22 [2]): 473 nM
IC50 (K562 [3]): 508 nM
IC50 at 72 h [4]: 516 nM
Ratio IC50 (HepG2 [5]): 34.1
Ratio IC50 (H22 [6]): 24.5
Ratio IC50 (K562 [7]): 26
selectivity ratio at 72 h [8]: 11.4
t1/2 [9]: 5.8 h

Structure (SMILES): C#CC(C)(C)Oc1cc(CNC(=O)c2cc(F)ccc2N2CCOCC2)ccc1OC
IC50 (HepG2 [1]): 1110 nM
IC50 (H22 [2]): 444 nM
IC50 (K562 [3]): 460 nM
IC50 at 72 h [4]: 1330 nM
Ratio IC50 (HepG2 [10]): 57.8
Ratio IC50 (H22 [11]): 21.9
Ratio IC50 (K562 [12]): 28.7
selectivity ratio at 72 h [13]: 62.2
t1/2 [14]: 14.5 h

Structure (SMILES): C#CCOc1ccc(CNc2nc(N(C)c3ccc(OC)cc3)c3ccccc3n2)cc1
IC50 (HepG2 [1]): 914 nM
IC50 (H22 [2]): 229 nM
IC50 (K562 [3]): 470 nM
IC50 at 72 h [4]: 703 nM
Ratio IC50 (HepG2 [5]): 63.5
Ratio IC50 (H22 [6]): 11.8
Ratio IC50 (K562 [7]): 24.1
selectivity ratio at 72 h [8]: 15.5
t1/2 [9]: 4.2 h

Structure (SMILES): COc1ccc(N(C)c2nc(NCc3ccc(O)cc3)nc3ccccc23)cc1
IC50 (HepG2 [1]): 14.4 nM
IC50 (H22 [2]): 19.3 nM
IC50 (K562 [3]): 19.5 nM
IC50 at 72 h [4]: 45.4 nM

Now from value to compound, other results behind:

IC50 (HepG2 [1]): 541 nM
IC50 (K562 [3]): 3980 nM
t1/2 [14]: > 24 h
Structure (SMILES): C=CCOc1cc(CNC(=O)c2cc(F)ccc2N2CCOCC2)ccc1OC
IC50 (H22 [2]): 282 nM
IC50 at 72 h [4]: 5470 nM
Ratio IC50 (HepG2 [10]): 28.2
Ratio IC50 (H22 [11]): 13.9
Ratio IC50 (K562 [12]): 248.8
selectivity ratio at 72 h [13]: 25.6

IC50 (HepG2 [1]): 402 nM
IC50 (K562 [3]): 502 nM
t1/2 [9]: > 24 h
Structure (SMILES): C=CCOc1ccc(CNc2nc(N(C)c3ccc(OC)cc3)c3ccccc3n2)cc1
IC50 (H22 [2]): 285 nM
IC50 at 72 h [4]: 353 nM
Ratio IC50 (HepG2 [5]): 27.9
Ratio IC50 (H22 [6]): 14.8
Ratio IC50 (K562 [7]): 25.7
selectivity ratio at 72 h [8]: 7.8

IC50 (HepG2 [1]): 19.2 nM
IC50 (K562 [3]): 16 nM
Activity (Tubulin (Homo sapiens) [22]): Active
inhibition (Tubulin (Homo sapiens) [25]): Active
inhibition (Tubulin (Homo sapiens) [26]): Active
inhibition (Tubulin (Homo sapiens) [27]): Active
inhibition (Tubulin (Homo sapiens) [28]): Active
inhibition (Tubulin (Homo sapiens) [29]): Active
inhibition (Tubulin (Homo sapiens) [30]): Active
inhibition [31]: Active
Activity (Tubulin (Homo sapiens) [35]): Active
Activity (Tubulin (Homo sapiens) [36]): Active
Structure (SMILES): COc1ccc(CNC(=O)c2cc(F)ccc2N2CCOCC2)cc1O
IC50 (H22 [2]): 20.3 nM
IC50 at 72 h [4]: 21.4 nM
Activity (K562 [15]): 45.95%
Activity (K562 [16]): 32.73%
Activity (K562 [17]): 21.32%
viability at 0.02 µM (K562 [18]): 15.2%
Activity (K562 [19]): 20.68%
Activity (K562 [20]): 59.77%
Activity (K562 [21]): 4.31%
Activity (K562 [23]): Active
Activity (HepG2 [24]): Active
inhibition in vivo at 20 mg/kg (HepG2 [32]): 49.6%
Activity (HepG2 [33]): Active
Activity (HepG2 [34]): Active
